Common to all, as to assay type: in vivo, man
Data set [1] deals with volunteers with telogenic defluvium. As to the kind of experiment: Clinical study: trichogram (evaluation of the hair bulbs by phase). The procedure: (§1) This controlled, randomized double-blind study was performed according to the present invention by means of the protocols below.
(§2) Sixty volunteers of both sexes and ranging between 18 and 60 years old were divided into three groups of 20 individuals each, all having the same level of pathology, i.e. telogenic defluvium existing for at least 2 months.
(§3) Some of these individuals were treated for 60 days with one capsule a day of a composition of the invention, according to the following scheme:
(§4) Group 1: 20 individuals treated with a composition of the invention containing spermidine alone (0.50 mg per capsule).
(§5) Group 2: 20 individuals treated with a composition of the invention according to Example 1 described later (spermidine 0.50 mg per capsule).
(§6) Group 3: 20 individuals treated with a placebo, in capsules.
(§7) The parameters evaluated were the following: • A) General dermatological visit. • B) Microscopic evaluation of the shaft of the hairs (diameter and possible structural changes in the hair). • C) Trichogram, i.e. evaluation of the bulbs in the anagenic (growth) phase, catagenic (involutive stasis) phase, telogenic (pathological precocious hair loss) phase and exogenic (physiological loss of hairs since they are replaced with new hairs). • D) Haematochemical analysis. • E) Pull test (mechanical tensile strength of the hair). • F) Wash test (count of the hairs lost after washing with shampoo). • G) Possible side effects.
(§8) These parameters were evaluated at time T0 (before the start of the treatment); at time T1 (at the end of the 60 days of treatment); and finally at time T2 (30 days after stopping the administration).
In this regard, reference is made to the diagrams of FIGS. 1 and 2 in the attached drawings. These show the trichogram of the anagenic and telogenic phases at times T0 (before the start of the treatment); at time T1 (at the end of the 60 days of treatment); and finally at time T2 (30 days after stopping the administration) for the individuals of the three groups, 1 (grey column), 2 (black column) and 3 (pale column). The percentage of hairs in the anagenic phase (FIG. 1) and in the telogenic phase (FIG. 2) for the treated individuals belonging to the three groups under consideration is shown on the y-axis, and the said times T are shown on the x-axis, under which are tabulated the said percentages found.

For data set [2] the test system is unchanged. As to the kind of experiment: Clinical study: microscopic evaluation of the hair shaft. To be noted: oral, one capsule a day (spermidine 0.50 mg) for 60 days; placebo virtually unchanged. As to the method:
as §1, §2, §3, §4
(§9) Group 2: 20 individuals treated with a composition of the invention according to Example 1 described later (spermidine 0.50 mg per capsule). […]
as §7, with “effects. […]” for “effects.”

Data set [3] has the same test system. The experiment in a line: Clinical study: pull test (mechanical tensile strength of the hair). Particulars: oral, one capsule a day for 60 days; placebo virtually unchanged. As to the method: as §1, §2, §3, §4, §9
as §7, with “effects. […]” for “effects.”

For data set [4] the test system is unchanged. As to the kind of experiment: Clinical study: wash test (count and phase of hairs lost after shampoo). The procedure:
as §1, §2, §3, §4, §5, §6, §7, §8
This test makes it possible not only to quantify the number of hairs lost after shampooing, but also, by means of a suitable microscopic analysis, to evaluate the phase of the cycle in which the bulb was found when the hair fell out: pathological loss (telogenic) or phase of physiological exchange (exogenic).
The test results are given in the graph of FIG. 3 in the attached drawings. […]

Data set [5] has the same test system. As to the kind of experiment: Clinical study: general dermatological visit. Particulars: oral, one capsule a day (spermidine 0.50 mg) for 60 days; compared with placebo group 3. As to the method: as §1, §2, §3, §4, §9
as §7, with “effects. […]” for “effects.”

The test system is the same in data set [6]. As to the kind of experiment: Clinical study: haematochemical analysis. To be noted: oral, one capsule a day for 60 days. As to the method:
as §1, §2, §3, §4, §9
as §7, with “effects. […]” for “effects.”

The mark [7] stands for this setting: oral, one capsule a day for 60 days, placebo not significantly changed.

The values below come from patent publication US8003119B2, “Composition for pharmaceutical or dietetic use for combating hair loss” (Giuliani S.p.A., priority 2002, dated 2011).

Take `NCCCCNCCCN` [spermidine, N-(3-aminopropyl)tetramethylenediamine]: in data set [1] (T1 = end of the 60 days of treatment, relative to T0, placebo 2.7%), the “increase in the anagenic phase at T1” value was determined as 8.1%. Further, the “decrease in the telogenic phase at T1” value in data set [1] (T1 = end of the 60 days of treatment, placebo increased by about 1.88%) was 9.1%. For the same compound, in data set [1] (T2 = 30 days after stopping the 60-day administration, placebo 4.16%), the “decrease in the telogenic phase at T2” value is reported as 6.76%. Also, the “increase in the anagenic phase at T2 relative to T0” value in data set [1] (T2 = 30 days after stopping the 60-day administration, placebo 7.79%) stood at 17.2%. Moreover, in data set [1] (setting [7]), the “number of bulbs in the anagenic phase (in words)” value was “increases significantly” and the “telogenic phase (in words)” value was “decreases significantly”. Further, the “diameter of the hair shaft” value in data set [2] is “increases quite substantially”. Moreover, in data set [3], the “mechanical tensile strength of the hair (pull test)” value is on record as “increased significantly”. In data set [4] (bulbs of hairs lost in the wash test, placebo more than 90%), the “lost hairs in the telogenic phase (pathological loss)” value is 63%. Also, the “lost hairs in the exogenic phase (physiological loss)” value in data set [4] (bulbs of hairs lost in the wash test, placebo only 3%) was found to be 33%. The “number of hairs lost in the wash test” value in data set [4] (oral, one capsule a day for 60 days, placebo unchanged) is “decreases significantly”. Also, in data set [5], the “hair loss at dermatological visit” value was “appreciable and significant reduction in the hair loss”; the “structure of the hair shaft at dermatological visit” value was “improvement in the structure of the shaft”. The haematochemical analyses entry in data set [6] is “within the norm”.
